From patent US7855073B2, “Cells containing a nanopatch sensor in their membrane” (Ben-Gurion University of the Negev Research and Development …, priority 2003, dated 2010)

What was measured:
U937 cells = assay: Detection of membrane perturbations by fluorescence microscopy, nanopatch-containing U937 cells; format: cell-based, human
Protocol: U937 cells were grown and prepared as described in section 1.1 of Example 1, hereinabove. The precursors of the Lipid/PDA constructs (i.e. a mixture of 10,12-tricosadiynoic acid, PE and PG at a molar ratio of 8:1:1) were prepared and introduced into the cells in accordance with the methods described in sections 1.2 and 1.3 of Example 1.
Separate aliquots of cells containing the lipid/PDA constructs were then subjected to the membrane-perturbing treatments described below.
Transmission differential interference contrast (DIC) and fluorescence images of the cells were acquired on a laser scanning confocal microscope (Olympus IX70) with an PlApo 60× objective using oil (NA 1.4). Excitation was at 488 nm using argon laser source. Emitted light was collected through a LP 560 nm filter.

Erythrocyte "ghosts" = assay: Detection of membrane perturbations, nanopatch-containing erythrocyte ghosts; format: cell-based; conditions: ghosts labeled with DMPC/PDA liposomes; FIG. 11
Protocol: Erythrocyte “ghosts” (i.e. emptied cells) were labeled with DMPC/PDA liposomes, following which the nanopatch-containing cells were treated with the membrane active compound melittin.

cultured neuronal cells = assay: Detection of membrane perturbations, nanopatch-containing neuron cells; format: cell-based, rat; conditions: 50 mM in medium; FIG. 7
Protocol: Cell cultures were prepared from the Hippocampi of one-day-old rat pups as follows. Tissue was treated for 30 min at 37° C. with 0.25% trypsin (type XI; Sigma), and then gently triturated and the dissociated cells were plated at a concentration of 2×10^5/ml onto poly-D-lysine ([…]; Sigma) and laminin ([…]; Collaborative Research)—coated glass coverslips. Cells were plated in Eagle's minimal essential medium (MEM) containing 10% heat-inactivated fetal bovine serum (HyClone), 2 mM glutamine, and 0.76% glucose. On the following day, the medium was replaced with fresh SF1C medium [Rayport, D. et al. (1992) J. Neurosci. 12, 4264-4280], including B-27 supplements (GIBCO). The cells were grown for up to 12 days in a humid incubator containing 5% CO2/95% air at 37° C. prior to use.
Cells were incubated with DMPE/DMPG/PDA-1:1:6 (mole ratio) vesicles in TG1 buffer (119 mM NaCl, 5 mM KCl, 30 mM Glucose, 32 mM Sucrose, 20 mM Hepes, pH=7.3) for 1 hour at room temperature. Following the fusion, vesicles were polymerized by UV irradiation at 254 nm for 10 seconds and the unbound vesicles were washed 3 times with TG1 buffer.
Fluorescent images of the cells were acquired using a Zeiss 200M microscope (Germany) fitted with a CY3 570-650 nm emission range filter (Chroma Technology Corp., Rockingham, Vt.) and CCD cooled camera (PCO). […]

CHO cells = assay: Detection of membrane perturbations, nanopatch-containing CHO cells; format: cell-based; conditions: FIG. 10
Protocol: PDA nanopatch-containing CHO cells were prepared as described in Example 1, hereinabove, and treated with propranolol, a membrane-active pharmaceutical compound.

SMILES: CC[C@H](C)[C@H](NC(=O)CN)C(=O)NCC(=O)N[C@@H](C)C(=O)N[C@H](C(=O)N[C@@H](CC(C)C)C(=O)N[C@@H](CCCCN)C(=O)N[C@H](C(=O)N[C@@H](CC(C)C)C(=O)N[C@H](C(=O)N[C@H](C(=O)NCC(=O)N[C@@H](CC(C)C)C(=O)N1CCC[C@H]1C(=O)N[C@@H](C)C(=O)N[C@@H](CC(C)C)C(=O)N[C@H](C(=O)N[C@@H](CO)C(=O)N[C@@H](Cc1c[nH]c2ccccc12)C(=O)N[C@H](C(=O)N[C@@H](CCCCN)C(=O)N[C@@H](CCCNC(=N)N)C(=O)N[C@@H](CCCCN)C(=O)N[C@@H](CCCNC(=N)N)C(=O)N[C@@H](CCC(N)=O)C(=O)N[C@@H](CCC(N)=O)C(N)=O)[C@@H](C)CC)[C@@H](C)CC)[C@@H](C)O)[C@@H](C)O)C(C)C)C(C)C [melittin]
- Fluorescent emission of the lipid/PDA constructs (membrane perturbation) (U937 cells; 5 μM and 50 μM, FIG. 8 panels C, D): results in the characteristic fluorescent emission
- Dependence of fluorescent emission on dose (U937 cells; 5 μM versus 50 μM, FIG. 8 panels C, D): dose-dependent
- Fluorescence from transformed red PDA (Erythrocyte "ghosts"): fluorescence spots

SMILES: [Ca+2] [calcium ions]
- Fluorescent emission from the red phase of the polydiacetylene polymer (cultured neuronal cells): white fluorescent light emitted by the cells

SMILES: CC(C)NCC(O)COc1cccc2ccccc12 (centres unmarked) [propranolol]
- Fluorescent emission associated with perturbation of the PDA-lipid constructs (CHO cells): characteristic fluorescent emission associated with perturbation of the PDA-lipid constructs embedded in the cell membrane is readily observed

SMILES: CCN(CC)CC(=O)Nc1c(C)cccc1C [lidocaine]
- Fluorescent emission of the lipid/PDA constructs (membrane perturbation) (U937 cells; 5 μM, 25° C., 5 to 15 minutes, FIG. 5): characteristic fluorescent emission
- Fluorescent emission of the lipid/PDA constructs (membrane perturbation) (U937 cells; 1 mM, FIG. 8 panel B): characteristic fluorescent emission associated with perturbation of the PDA construct is readily observed

SMILES: OC[C@H]1O[C@@](CO)(O[C@H]2O[C@H](CO)[C@@H](O)[C@H](O)[C@H]2O)[C@@H](O)[C@@H]1O [sucrose]
- Fluorescent emission of the lipid/PDA constructs (membrane perturbation) (U937 cells; 1 M, 25° C., 5 to 15 minutes, FIG. 3): fluorescent emission
